From patent US20230407243A1, “GENETIC PLATFORM TO INVESTIGATE THE FUNCTIONS OF BACTERIAL DRUG EFFLUX PUMPS” (priority 2022, published 2023)

What was measured:
Format in all cases: cell-based, Escherichia coli
[1] = system: wild-type (WT) K-12-Pore; experiment: microbe, parasite or virus in culture; conditions: technical duplicate; for Minimum inhibitory concentration (MIC), Pore K-12: Table 10, with pore; for Minimum inhibitory concentration, K-12 (WT)-Pore: Table 14A, porinated
Method in brief: (§1)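 E. coli strains carrying a genomically integrated constitutive fhuA ΔC/Δ4L pore were grown 18 h in LB at 37 °C, then diluted 1/2000 in MHB II from OD600 ~1.0. Compounds were tested in duplicate, 2-fold serial titration, for 18 h at 37 °C with shaking. MIC came from OD600 with the pre-incubation background subtracted.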

[2] = system: ΔtolC-Pore; experiment: microbe, parasite or virus in culture; conditions: technical duplicate; for Minimum inhibitory concentration (MIC), Pore ΔtolC: Table 10, with pore; for Minimum inhibitory concentration, ΔtolC-Pore: Table 14A, porinated
Method in brief: as §1

[3] = system: EKO-35 araC::mdtBC; experiment: MIC susceptibility profiling, efflux platform; conditions: for Fold change of MICs: EKO-35 araC::mdtBC compared to EKO-35; for Minimum Inhibitory Concentration, EKO-35 araC::mdtBC: Table 13B, non-porinated, technical duplicate
Method in brief: (§2)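 Broth MIC in cation-adjusted Mueller-Hinton (MHB II) following twofold compound titration in duplicate. Bacteria were prepared at OD600 ~1.0 in PBS and diluted 1/2000. Endpoint OD600 after 18 h at 37 °C was corrected using the pre-incubation reading.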

[4] = system: EKO-35 araC::mdtEF; experiment: MIC susceptibility profiling, efflux platform; conditions: for Fold change of MICs: EKO-35 araC::mdtEF compared to EKO-35; for Minimum Inhibitory Concentration, EKO-35 araC::mdtEF: Table 13A, non-porinated, technical duplicate
Method in brief: as §2

[5] = system: EKO-35 araC::acrBD408A; experiment: MIC susceptibility profiling, efflux platform; conditions: for Fold change of MICs: EKO-35 araC::acrBD408A compared to EKO-35; for Minimum Inhibitory Concentration, EKO-35 araC::acrBD408A: Table 13B, non-porinated, technical duplicate
Method in brief: as §2

[6] = system: EKO-35 araC::acrEF; experiment: MIC susceptibility profiling, efflux platform; conditions: for Fold change of MICs: EKO-35 araC::acrEF compared to EKO-35; for Minimum Inhibitory Concentration, EKO-35 araC::acrEF: Table 13A, non-porinated, technical duplicate
Method in brief: as §2

[7] = system: EKO-35 araC::macAB; experiment: MIC susceptibility profiling, efflux platform; conditions: for Fold change of MICs: EKO-35 araC::macAB compared to EKO-35; for Minimum Inhibitory Concentration, EKO-35 araC::macAB: Table 13B, non-porinated, technical duplicate
Method in brief: as §2

[8] = system: EKO-35 araC::mexCD (MexCD from P. aeruginosa); experiment: MIC susceptibility profiling, efflux platform; conditions: for Fold change of MICs: EKO-35 araC::mexCD compared to EKO-35; for Minimum Inhibitory Concentration, EKO-35 araC::mexCD: Table 13B, non-porinated, technical duplicate
Method in brief: as §2

[9] = system: EKO-35 araC::emrKY; experiment: MIC susceptibility profiling, efflux platform; conditions: for Fold change of MICs: EKO-35 araC::emrKY compared to EKO-35; for Minimum Inhibitory Concentration, EKO-35 araC::emrKY: Table 13B, non-porinated, technical duplicate
Method in brief: as §2

[10] = system: EKO-35 araC::emrAB; experiment: MIC susceptibility profiling, efflux platform; conditions: for Fold change of MICs: EKO-35 araC::emrAB compared to EKO-35; for Minimum Inhibitory Concentration, EKO-35 araC::emrAB: Table 13B, non-porinated, technical duplicate
Method in brief: as §2

[11] = system: EKO-35 araC::acrB; experiment: MIC susceptibility profiling, efflux platform; conditions: for Fold change of MICs: EKO-35 araC::acrB compared to EKO-35; for Minimum Inhibitory Concentration, EKO-35 araC::acrB: Table 13A, non-porinated, technical duplicate
Method in brief: as §2

[12] = system: EKO-35 araC::acrD; experiment: MIC susceptibility profiling, efflux platform; conditions: for Fold change of MICs: EKO-35 araC::acrD compared to EKO-35; for Minimum Inhibitory Concentration, EKO-35 araC::acrD: Table 13A, non-porinated, technical duplicate
Method in brief: as §2

[13] = system: EKO-35 araC::acrD Pore; experiment: MIC susceptibility profiling, porinated efflux platform; conditions: for Fold changes of MICs: EKO-35 araC::acrD Pore compared to EKO-35-Pore; for Minimum inhibitory concentration, EKO-35 araC::acrD Pore: Table 14A, porinated, technical duplicate
Method in brief: as §1

[14] = system: EKO-35 araC::acrBD408A Pore; experiment: as above; conditions: for Fold changes of MICs: EKO-35 araC::acrBD408A Pore compared to EKO-35-Pore; for Minimum inhibitory concentration: EKO-35 araC::acrBD408A Pore, technical duplicate
Method in brief: as §1

[15] = system: EKO-35 araC::emrKY Pore; experiment: as above; conditions: for Fold changes of MICs: EKO-35 araC::emrKY Pore compared to EKO-35-Pore; for Minimum inhibitory concentration: EKO-35 araC::emrKY Pore, technical duplicate
Method in brief: as §1

[16] = system: E. coli EKO-35; experiment: microbe, parasite or virus in culture; conditions: for Fold change of MICs: EKO-35 compared to EKO-35 (reference); for Minimum inhibitory concentration (MIC), EKO-35: Table 10, without pore; for Minimum inhibitory concentration (MIC), EKO-35 / Minimum Inhibitory Concentration, EKO-35: technical duplicate; for Minimum Inhibitory Concentration, EKO-35: Table 13A, non-porinated; for susceptibility of EKO-35 to the compound: synthetic efflux substrates of FIG. 12
Method in brief: as §2

[17] = system: E. coli ΔtolC; experiment: microbe, parasite or virus in culture; conditions: technical duplicate; for Minimum inhibitory concentration (MIC), ΔtolC: Table 10, without pore; for Minimum Inhibitory Concentration, ΔtolC: Table 13A, non-porinated
Method in brief: as §2

[18] = system: wild-type E. coli K-12 str. BW25113; experiment: microbe, parasite or virus in culture; conditions: technical duplicate; for Minimum inhibitory concentration (MIC), K-12: Table 10, without pore; for Minimum Inhibitory Concentration, K-12: Table 13A, non-porinated
Method in brief: as §2

[19] = system: EKO-35-Pore; experiment: MIC susceptibility profiling, porinated strain; conditions: for Fold changes of MICs: EKO-35-Pore compared to EKO-35-Pore (reference); for Minimum inhibitory concentration (MIC), Pore EKO-35: Table 10, with pore; for Minimum inhibitory concentration (MIC), Pore EKO-35 / Minimum inhibitory concentration, EKO-35-Pore: technical duplicate; for Minimum inhibitory concentration, EKO-35-Pore: Table 14A, porinated
Method in brief: as §1

CC(C)(C)c1cc(C(=O)NNC(=O)Nc2cccc3ccccc23)n(Cc2ccc(F)cc2)n1 [compound 4]
Minimum inhibitory concentration (MIC), Pore K-12 [1]: 320 µg/mL
Minimum inhibitory concentration, K-12 (WT)-Pore [1]: 320 µg/mL
Minimum inhibitory concentration (MIC), Pore ΔtolC [2]: 1.25 µg/mL
Minimum inhibitory concentration, ΔtolC-Pore [2]: 1.25 µg/mL
Fold change of MICs [3]: 1 fold
Minimum Inhibitory Concentration, EKO-35 araC::mdtBC [3]: 20 µg/mL
Fold change of MICs [4]: 16 fold
Minimum Inhibitory Concentration, EKO-35 araC::mdtEF [4]: 320 µg/mL
Fold change of MICs [5]: 1 fold
Minimum Inhibitory Concentration, EKO-35 araC::acrBD408A [5]: 20 µg/mL
Fold change of MICs [6]: 16 fold
Minimum Inhibitory Concentration, EKO-35 araC::acrEF [6]: 320 µg/mL
Fold change of MICs [7]: 1 fold
Minimum Inhibitory Concentration, EKO-35 araC::macAB [7]: 20 µg/mL
Fold change of MICs [8]: 16 fold
Minimum Inhibitory Concentration, EKO-35 araC::mexCD [8]: 320 µg/mL
Fold change of MICs [9]: 1 fold
Minimum Inhibitory Concentration, EKO-35 araC::emrKY [9]: 20 µg/mL
Fold change of MICs [10]: 16 fold
Minimum Inhibitory Concentration, EKO-35 araC::emrAB [10]: 320 µg/mL
Fold change of MICs [11]: 16 fold
Minimum Inhibitory Concentration, EKO-35 araC::acrB [11]: 320 µg/mL
Fold change of MICs [12]: 16 fold
Minimum Inhibitory Concentration, EKO-35 araC::acrD [12]: 320 µg/mL
Fold changes of MICs [13]: 4 fold
Minimum inhibitory concentration, EKO-35 araC::acrD Pore [13]: 10 µg/mL
Fold changes of MICs [14]: 1 fold
Minimum inhibitory concentration [14]: 2.5 µg/mL
Fold changes of MICs [15]: 1 fold
Minimum inhibitory concentration [15]: 1.25 µg/mL
Fold change of MICs [16]: 1 fold
Minimum inhibitory concentration (MIC), EKO-35 [16]: 20 µg/mL
Minimum Inhibitory Concentration, EKO-35 [16]: 20 µg/mL
susceptibility of EKO-35 to the compound [16]: susceptible
Minimum inhibitory concentration (MIC), ΔtolC [17]: 10 µg/mL
Minimum Inhibitory Concentration, ΔtolC [17]: 10 µg/mL
Minimum inhibitory concentration (MIC), K-12 [18]: 320 µg/mL
Minimum Inhibitory Concentration, K-12 [18]: 320 µg/mL
Fold changes of MICs [19]: 1 fold
Minimum inhibitory concentration (MIC), Pore EKO-35 [19]: 2.5 µg/mL
Minimum inhibitory concentration, EKO-35-Pore [19]: 2.5 µg/mL

O=c1oc(-c2ccccc2Cl)nn1-c1ccc(C(F)(F)F)cn1 [compound 5]
Minimum inhibitory concentration (MIC), Pore K-12 [1]: 320 µg/mL
Minimum inhibitory concentration, K-12 (WT)-Pore [1]: 320 µg/mL
Minimum inhibitory concentration (MIC), Pore ΔtolC [2]: 2.5 µg/mL
Minimum inhibitory concentration, ΔtolC-Pore [2]: 2.5 µg/mL
Fold change of MICs [3]: 1 fold
Minimum Inhibitory Concentration, EKO-35 araC::mdtBC [3]: 10 µg/mL
Fold change of MICs [4]: 16 fold
Minimum Inhibitory Concentration, EKO-35 araC::mdtEF [4]: 320 µg/mL
Fold change of MICs [5]: 1 fold
Minimum Inhibitory Concentration, EKO-35 araC::acrBD408A [5]: 20 µg/mL
Fold change of MICs [6]: 16 fold
Minimum Inhibitory Concentration, EKO-35 araC::acrEF [6]: 320 µg/mL
Fold change of MICs [7]: 1 fold
Minimum Inhibitory Concentration, EKO-35 araC::macAB [7]: 20 µg/mL
Fold change of MICs [8]: 16 fold
Minimum Inhibitory Concentration, EKO-35 araC::mexCD [8]: 320 µg/mL
Fold change of MICs [9]: 1 fold
Minimum Inhibitory Concentration, EKO-35 araC::emrKY [9]: 20 µg/mL
Fold change of MICs [10]: 16 fold
Minimum Inhibitory Concentration, EKO-35 araC::emrAB [10]: 320 µg/mL
Fold change of MICs [11]: 16 fold
Minimum Inhibitory Concentration, EKO-35 araC::acrB [11]: 320 µg/mL
Fold change of MICs [12]: 2 fold
Minimum Inhibitory Concentration, EKO-35 araC::acrD [12]: 40 µg/mL
Fold changes of MICs [13]: 1 fold
Minimum inhibitory concentration, EKO-35 araC::acrD Pore [13]: 10 µg/mL
Fold changes of MICs [14]: 1 fold
Minimum inhibitory concentration [14]: 20 µg/mL
Fold changes of MICs [15]: 1 fold
Minimum inhibitory concentration [15]: 10 µg/mL
Fold change of MICs [16]: 1 fold
Minimum inhibitory concentration (MIC), EKO-35 [16]: 20 µg/mL
Minimum Inhibitory Concentration, EKO-35 [16]: 20 µg/mL
susceptibility of EKO-35 to the compound [16]: susceptible
Minimum inhibitory concentration (MIC), ΔtolC [17]: 10 µg/mL
Minimum Inhibitory Concentration, ΔtolC [17]: 10 µg/mL
Minimum inhibitory concentration (MIC), K-12 [18]: 320 µg/mL
Minimum Inhibitory Concentration, K-12 [18]: 320 µg/mL
Fold changes of MICs [19]: 1 fold
Minimum inhibitory concentration (MIC), Pore EKO-35 [19]: 20 µg/mL
Minimum inhibitory concentration, EKO-35-Pore [19]: 20 µg/mL
